Test results: patent US8877748B2, “Heterocyclic fused anthraquinone derivatives, manufacturing method and pharmaceutical composition using thereof” (National Defense Medical Center, priority 2012, dated 2014)

Key:
[1] = tested on: PC-3 prostate cancer cell line; experiment: SRB assay cell viability, PC-3 prostate cancer cell line; type: cell-based, human; conditions: Homo sapiens, PC-3 prostate cancer cell line, Table II prints no unit, μM printed, read-out: SRB assay: 50% inhibition of cancer cell proliferation of sample concentration (IC50) of PC-3 prostate cancer cell line

Structure (SMILES)	melting point	IC50 [1]
Cc1ccc(Oc2cc3c(c4nsnc24)C(=O)c2ccccc2C3=O)cc1	244 to 245 °C	–
O=C1c2ccccc2C(=O)c2c1cc(S(=O)(=O)[O-])c1nsnc21.[Na+] [C3, Sodium 6,11-dioxo-6,11-dihydroanthra[2,1-c][1,2,5]thiadiazole-4-sulfonate]	293 to 295 °C	13.3 µM
CCN(CC)c1cc2c(c3nsnc13)C(=O)c1ccccc1C2=O [C5, 4-(diethylamino)anthra[2,1-c][1,2,5] thiadiazol-6,11-dione]	204 to 205 °C	1.1 µM
